Results as given in US9770026B2, “Substituted pyrimidine compound and uses thereof” (Shenyang Sinochem Agrochemicals R&D Co., Ltd., priority 2012, dated 2017).

Key:
[1] = system: Green peach aphids (Myzus Persicae Sulzer); assay: bioactivity test against green peach aphid, airbrush foliar spray; assay type: in vivo; conditions: Myzus persicae, foliar, 48 h, contrastive test, read-out: Insecticidal activity against peach aphid (%); for pest or weed control at 10 µg/mL: 10 mg/L; for pest or weed control at 100 µg/mL: 100 mg/L; for pest or weed control at 600 µg/mL: 600 mg/L
Outline: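 Death rate was scored at 48 hrs, held at 25±1 C and 60±5% RH, following airbrush foliar spray (0.5 mL, 10 psi) onto cabbage leaf discs bearing about 15-30 aphids. Test solutions: compound dissolved in 1:1 acetone:methanol, brought to concentration with 0.1% tween 80 water.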

cucumber downy mildew = assay: protectant activity in vivo against cucumber downy mildew; conditions: Cucumis sativus, 168 h, protectant activity; for pest or weed control at 25 µg/mL: read-out: control effect against cucumber downy mildew (%), 25 mg/L; for pest or weed control at 50 µg/mL: read-out: control effect against cucumber downy mildew (%), 50 mg/L; for pest or weed control at 100 µg/mL: read-out: control effect against cucumber downy mildew (%), 100 mg/L; for pest or weed control at 400 µg/mL: read-out: control effect against cucumber downy mildew (%), 400 mg/L
carmine spider mite = assay: bioactivity test against carmine spider mite, airbrush spray; assay type: in vivo; conditions: Tetranychus cinnabarinus, 72 h, contrastive test, read-out: Insecticidal activity against carmine spider mite (% )
Outline: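 Broadbean seedlings infested with adult mites were sprayed with compound (acetone/methanol stock diluted in 0.1% Tween 80 water) by airbrush at 0.7 kg/cm^2, 0.5 ml. Three replicates were run. Mortality was scored after 72 hrs.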

Diamond back moth = assay: insecticidal activity against diamond back moth, airbrush spray; assay type: in vivo; conditions: 72 h, 600 mg/L
Description: (§1) Compounds were dissolved in mixed solvent (acetone:methanol=1:1), and diluted to required concentration with water containing 0.1% of tween 80.
(§2) Diamond back moth, armyworm, peach aphid and carmine spider mite were used as targets and the method of spraying by airbrush was used for determination of insecticidal biassays.
(§3) The method of spraying by airbrush: The cabbage leaves were made into plates of 2 cm diameter by use of punch. A test solution (0.5 ml) was sprayed by airbrush at the pressure of 0.7 kg/cm^2 to both sides of every plate. 10 Second instar larvae were put into the petri-dishes after the leaf disc air-dried and 3 replicates were set for each treatment. Then the insects were maintained in observation room (25° C., 60˜70% R.H.). Scores were conducted and mortalities were calculated after 72 hrs.

armyworm = assay: bioactivity test against armyworm, airbrush spray; assay type: in vivo; conditions: 72 h, 600 mg/L; read-out: Insecticidal activity against armyworm (%)
Description: as §1, §2
as §3, with “corn” for “cabbage”, “(25 °C,” for “(25° C.,”, “h.” for “hrs.”

corn rust = assay: protectant activity in vivo against corn rust; conditions: Zea mays, 168 h, protectant activity; for pest or weed control at 400 µg/mL: read-out: control effect against corn rust (%), 400 mg/L
wheat powdery mildew = assay: protectant activity in vivo against wheat powdery mildew; conditions: Triticum aestivum, 168 h, protectant activity

| Compound | pest or weed control at 10 µg/mL [1] | pest or weed control at 100 µg/mL [1] | pest or weed control at 600 µg/mL [1] | pest or weed control at 25 µg/mL (cucumber downy mildew) | pest or weed control at 50 µg/mL (cucumber downy mildew) | pest or weed control at 100 µg/mL (cucumber downy mildew) | pest or weed control at 400 µg/mL (cucumber downy mildew) | pest or weed control at 600 µg/mL (Diamond back moth) | pest or weed control at 600 µg/mL (armyworm) | pest or weed control at 400 µg/mL (corn rust) | further results |
| --- | --- | --- | --- | --- | --- | --- | --- | --- | --- | --- | --- |
| Cc1ncnc(NC(C)c2ccc(Oc3ccc(C(F)(F)F)cn3)cc2)c1Cl (stereo not shown) [CK28, reference compound] | 43% | 100% | 100% | 0% | 20% | 40% | 100% | 0% | 29% | 100% | pest or weed control at 10 µg/mL (carmine spider mite; 10 mg/L): 22%; pest or weed control at 100 µg/mL (carmine spider mite; 100 mg/L): 100%; pest or weed control at 600 µg/mL (carmine spider mite; 600 mg/L): 100%; pest or weed control at 0.4 µg/mL (corn rust; read-out: control effect against corn rust (%), 0.4 mg/L): 0%; pest or weed control at 1.6 µg/mL (corn rust; read-out: control effect against corn rust (%), 1.6 mg/L): 0%; pest or weed control at 6.25 µg/mL (corn rust; read-out: control effect against corn rust (%), 6.25 mg/L): 95%; pest or weed control at 25 µg/mL (corn rust; read-out: control effect against corn rust (%), 25 mg/L): 100%; pest or weed control at 100 µg/mL (corn rust; read-out: control effect against corn rust (%), 100 mg/L): 100% |
| CCc1ncnc(NCc2ccc(Oc3ccc(C(F)(F)F)cn3)cc2)c1Cl [CK42, reference compound] | 20% | 67% | 100% | 20% | 100% | 100% | 100% | 0% | 0% | 70% | pest or weed control at 2.5 µg/mL ([1]; 2.5 mg/L): 0%; pest or weed control at 5 µg/mL ([1]; 5 mg/L): 17%; pest or weed control at 6.25 µg/mL (wheat powdery mildew; read-out: control effect against wheat powdery mildew (%), 6.25 mg/L): 50%; pest or weed control at 25 µg/mL (wheat powdery mildew; read-out: control effect against wheat powdery mildew (%), 25 mg/L): 60%; pest or weed control at 100 µg/mL (wheat powdery mildew; read-out: control effect against wheat powdery mildew (%), 100 mg/L): 70%; pest or weed control at 400 µg/mL (wheat powdery mildew; read-out: control effect against wheat powdery mildew (%), 400 mg/L): 100%; pest or weed control at 3.125 µg/mL (cucumber downy mildew; read-out: control effect against cucumber downy mildew (%), 3.125 mg/L): 0%; pest or weed control at 6.25 µg/mL (cucumber downy mildew; read-out: control effect against cucumber downy mildew (%), 6.25 mg/L): 0%; pest or weed control at 12.5 µg/mL (cucumber downy mildew; read-out: control effect against cucumber downy mildew (%), 12.5 mg/L): 0% |
